Experimental data reported in article PMC10746543, “Design principles for cyclin K molecular glue degraders” (Nature Chemical Biology, 2023).
“And” between values parts separate entries of the source, which are not always exact repeats. Identical values can stand only once. Like-named read-outs stand apart in the source and are kept apart here.

What was measured:
CDK12–cyclin K and DDB1 = target: T1, CDK12–cyclin K and DDB1 (Homo sapiens, UniProt Q16531+Q9NYV4, K965R); assay: TR-FRET ternary complex formation assay (compound titration); format: binding; conditions: for TR-FRET signal at compound concentration 4.68 nM / TR-FRET signal at compound concentration 21.6 nM / TR-FRET signal at compound concentration 36 nM / TR-FRET signal at compound concentration 79.2001 nM / TR-FRET signal at compound concentration 158.4 nM / TR-FRET signal at compound concentration 309.6 nM / TR-FRET signal at compound concentration 626.401 nM / TR-FRET signal at compound concentration 1252.8 nM / TR-FRET signal at compound concentration 2448 nM / TR-FRET signal at compound concentration 9936.01 nM / TR-FRET signal at compound concentration 20016 nM: raw titration data
T1 construct: His6–CDK12 (a.a. 713–1,052); full-length or beta-propeller B domain deletion (ΔBPB: a.a. 396–705 deleted) constructs of His6–DDB1ΔBPB, StrepII–Avi–DDB1, or His6–Spy–DDB1; made in house; host or cells: Trichoplusia ni High Five insect cells (baculovirus)
T1 sequence (Q9NYV4 713-1052 K965R): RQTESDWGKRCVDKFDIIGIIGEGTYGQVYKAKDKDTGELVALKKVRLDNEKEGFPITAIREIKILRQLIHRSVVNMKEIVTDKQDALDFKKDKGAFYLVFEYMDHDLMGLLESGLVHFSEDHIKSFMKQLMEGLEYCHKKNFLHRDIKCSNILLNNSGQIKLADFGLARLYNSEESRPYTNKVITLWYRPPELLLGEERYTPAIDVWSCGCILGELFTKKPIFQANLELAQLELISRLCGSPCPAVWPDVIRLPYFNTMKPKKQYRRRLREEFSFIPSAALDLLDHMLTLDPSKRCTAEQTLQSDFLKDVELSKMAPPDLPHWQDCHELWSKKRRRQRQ
T1 sequence (O75909 1-267 partner): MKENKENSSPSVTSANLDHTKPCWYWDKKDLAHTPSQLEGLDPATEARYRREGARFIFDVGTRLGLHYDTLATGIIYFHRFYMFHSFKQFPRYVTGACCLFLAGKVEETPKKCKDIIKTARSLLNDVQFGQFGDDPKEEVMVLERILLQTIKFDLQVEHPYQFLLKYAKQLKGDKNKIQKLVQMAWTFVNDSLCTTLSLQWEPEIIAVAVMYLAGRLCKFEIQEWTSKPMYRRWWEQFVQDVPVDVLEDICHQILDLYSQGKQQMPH
T1 sequence (Q16531 whole entry): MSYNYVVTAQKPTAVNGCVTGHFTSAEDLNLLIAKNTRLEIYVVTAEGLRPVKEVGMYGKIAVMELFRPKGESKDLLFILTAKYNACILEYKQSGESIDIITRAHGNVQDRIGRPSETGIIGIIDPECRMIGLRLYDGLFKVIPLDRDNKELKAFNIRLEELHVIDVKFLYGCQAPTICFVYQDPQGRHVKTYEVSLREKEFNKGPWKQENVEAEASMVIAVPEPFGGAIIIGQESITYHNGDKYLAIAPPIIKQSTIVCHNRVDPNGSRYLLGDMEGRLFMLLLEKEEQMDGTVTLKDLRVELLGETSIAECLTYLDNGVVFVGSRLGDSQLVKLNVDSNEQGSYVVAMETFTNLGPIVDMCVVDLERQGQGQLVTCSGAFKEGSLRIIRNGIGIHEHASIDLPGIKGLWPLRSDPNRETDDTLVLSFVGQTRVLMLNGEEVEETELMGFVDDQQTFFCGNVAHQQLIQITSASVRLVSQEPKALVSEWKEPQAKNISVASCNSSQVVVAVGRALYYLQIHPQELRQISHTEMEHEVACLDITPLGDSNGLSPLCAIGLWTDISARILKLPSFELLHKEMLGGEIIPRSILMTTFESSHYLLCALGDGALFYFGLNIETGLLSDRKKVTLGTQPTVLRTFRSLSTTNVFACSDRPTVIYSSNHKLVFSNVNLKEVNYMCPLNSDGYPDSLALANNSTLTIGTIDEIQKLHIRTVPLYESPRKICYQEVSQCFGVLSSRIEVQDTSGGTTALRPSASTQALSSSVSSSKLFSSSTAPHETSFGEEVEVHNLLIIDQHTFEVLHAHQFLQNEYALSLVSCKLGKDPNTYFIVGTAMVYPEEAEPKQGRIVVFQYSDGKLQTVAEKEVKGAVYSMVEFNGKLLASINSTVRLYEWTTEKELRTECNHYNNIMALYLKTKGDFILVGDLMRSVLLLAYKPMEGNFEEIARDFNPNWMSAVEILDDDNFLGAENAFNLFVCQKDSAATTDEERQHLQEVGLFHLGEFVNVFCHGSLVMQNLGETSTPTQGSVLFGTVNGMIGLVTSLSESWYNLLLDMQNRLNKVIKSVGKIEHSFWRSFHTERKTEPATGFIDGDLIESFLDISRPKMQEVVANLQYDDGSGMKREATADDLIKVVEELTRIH
Method in brief: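 A time delay of 70 μs preceded acquisition, limiting background fluorescence; the ratio of emission at 520 versus 490 nm gave the TR-FRET value.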

HEK293T cells = assay: Drug sensitivity assay (CellTiter-Glo viability) with or without MLN4924 pretreatment; format: cell-based, human; conditions: for EC50: Homo sapiens, HEK-293T; for Toxicity rescue: MLN4924-mediated cytotoxicity rescue, 10 µM used where n.d.
Method in brief: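 Cas9-expressing HEK293T cells receive either vehicle or 100 nM MLN4924, then compounds 2 h afterwards. After three days, luminescence-based viability is measured and calculated relative to DMSO.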

[1] = system: cyclin K–eGFP degradation reporter; assay: Cyclin K reporter stability analysis (dual-color cyclin K–eGFP reporter); format: cell-based, human; conditions: source data sheet correlations; read-out: DC50
Method in brief: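 Cells (HEK293T–Cas9, reporter-expressing) at 1 × 10^6 ml^−1; 5 h compound or DMSO; flow cytometry; gMFI eGFP ÷ mCherry on round mCherry-positive events; normalized to 3 DMSO controls.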

[2] = in vitro complex formation, 50 nM CDK12–cyclin K, 100 nM DDB1, text and figures, read-out: TR-FRET EC50
[3] = sheet MOESM7, read-out: log TR-FRET EC50 (converted)
[4] = source data sheet correlations, read-out: TR-FRET EC50
[5] = Supplementary Table 2, HEK293T viability, 72 h, compound alone, read-out: Cellular assays EC50
[6] = compound concentration 79.2001 nM
[7] = compound concentration 158.4 nM
[8] = compound concentration 309.6 nM
[9] = compound concentration 626.401 nM
[10] = compound concentration 1252.8 nM
[11] = compound concentration 9936.01 nM
[12] = compound concentration 20016 nM
[13] = Supplementary Fig. 5, HEK293T, CellTiter Glo, 72h, read-out: Viability EC50, no MLN4924

EC50 (CDK12–cyclin K and DDB1; [2]) [nM]	EC50 (CDK12–cyclin K and DDB1; [3]) [nM]	EC50 (CDK12–cyclin K and DDB1; [4]) [nM]	DC50 [1] [nM]	TR-FRET signal at compound concentration 4.68 nM (CDK12–cyclin K and DDB1; compound concentration 4.68 nM)	TR-FRET signal at compound concentration 21.6 nM (CDK12–cyclin K and DDB1; compound concentration 21.6 nM)	TR-FRET signal at compound concentration 36 nM (CDK12–cyclin K and DDB1; compound concentration 36 nM)	TR-FRET signal at compound concentration 79.2001 nM (CDK12–cyclin K and DDB1; [6])	TR-FRET signal at compound concentration 158.4 nM (CDK12–cyclin K and DDB1; [7])	TR-FRET signal at compound concentration 309.6 nM (CDK12–cyclin K and DDB1; [8])	TR-FRET signal at compound concentration 626.401 nM (CDK12–cyclin K and DDB1; [9])	TR-FRET signal at compound concentration 1252.8 nM (CDK12–cyclin K and DDB1; [10])	TR-FRET signal at compound concentration 2448 nM (CDK12–cyclin K and DDB1; compound concentration 2448 nM)	TR-FRET signal at compound concentration 9936.01 nM (CDK12–cyclin K and DDB1; [11])	TR-FRET signal at compound concentration 20016 nM (CDK12–cyclin K and DDB1; [12])	SMILES	EC50 (HEK293T cells; [5]) [nM]	Toxicity rescue (HEK293T cells; Supplementary Table 2) [%]	EC50 (HEK293T cells; [13]) [nM]	further results
72 ± 5	72.3	72.3	587	–	–	–	–	–	–	–	–	–	–	–	Cn1cc(-n2cnc3c(NCc4nc5cc(Cl)c(Cl)cc5[nH]4)nc(NCCc4cn[nH]c4)nc32)cn1 [DS57]	> 10000	0	–	TR-FRET signal at compound concentration 0.468 nM (CDK12–cyclin K and DDB1; compound concentration 0.468 nM, raw replicate titration data): 0.2681 and 0.2803; TR-FRET signal at compound concentration 2.16 nM (CDK12–cyclin K and DDB1; compound concentration 2.16 nM, raw replicate titration data): 0.3056 and 0.3131; TR-FRET signal at compound concentration 3.6 nM (CDK12–cyclin K and DDB1; compound concentration 3.6 nM, raw replicate titration data): 0.3611 and 0.3774; TR-FRET signal at compound concentration 7.92001 nM (CDK12–cyclin K and DDB1; compound concentration 7.92001 nM, raw replicate titration data): 0.4715 and 0.4922; TR-FRET signal at compound concentration 15.84 nM (CDK12–cyclin K and DDB1; compound concentration 15.84 nM, raw replicate titration data): 0.6621 and 0.6827; TR-FRET signal at compound concentration 30.96 nM (CDK12–cyclin K and DDB1; compound concentration 30.96 nM, raw replicate titration data): 1.043 and 1.045; TR-FRET signal at compound concentration 62.6401 nM (CDK12–cyclin K and DDB1; compound concentration 62.6401 nM, raw replicate titration data): 1.709 and 1.668; TR-FRET signal at compound concentration 125.28 nM (CDK12–cyclin K and DDB1; compound concentration 125.28 nM, raw replicate titration data): 2.476 and 2.42; TR-FRET signal at compound concentration 244.8 nM (CDK12–cyclin K and DDB1; compound concentration 244.8 nM, raw replicate titration data): 2.963 and 3.026; TR-FRET signal at compound concentration 993.601 nM (CDK12–cyclin K and DDB1; compound concentration 993.601 nM, raw replicate titration data): 3.269 and 3.459; TR-FRET signal at compound concentration 2001.6 nM (CDK12–cyclin K and DDB1; compound concentration 2001.6 nM, raw replicate titration data): 3.336 and 3.495
948 ± 61	948	948	2020	0.2093 and 0.2396	0.2345 and 0.3021	0.286 and 0.3105	0.3776 and 0.414	0.5529 and 0.574	0.8665 and 0.8767	1.353 and 1.369	2.037 and 2.014	2.68 and 2.699	3.329 and 3.445	3.076 and 3.1	CC(C)n1cnc2c(NCc3ccc(-c4ccccn4)cc3)nc(N[C@@H](Cc3ccc(OCc4ccccc4)cc3)c3nnc[nH]3)nc21 [DS58]	1780	461	1750	–
101 ± 5	–	101	566	0.1939 and 0.1953	0.4174 and 0.4335	0.8682 and 0.9198	1.565 and 1.549	2.139 and 2.165	2.574 and 2.56	2.883 and 2.886	3.135 and 3.111	3.2283 and 3.26	3.148 and 3.114	2.946 and 3.018	Cc1nn(C)c(CNc2nc(NCc3ccc(-c4ccccn4)cc3)c3ncn(C(C)C)c3n2)c1S(N)(=O)=O [DS59]	1420	230	–	–
169 ± 7	–	168	917	–	–	–	–	–	–	–	–	–	–	–	CC[C@H](CO)Nc1nc(NCc2ccc(OCCO)cc2)c2ncn(C(C)C)c2n1 [DS61]	283	278	281	TR-FRET signal (CDK12–cyclin K and DDB1; compound concentration 4.68 nM): 0.1556 and 0.1596; TR-FRET signal (CDK12–cyclin K and DDB1; compound concentration 21.6 nM): 0.2553 and 0.252; TR-FRET signal (CDK12–cyclin K and DDB1; compound concentration 36 nM): 0.4296 and 0.427; TR-FRET signal (CDK12–cyclin K and DDB1; [6]): 0.6728 and 0.6901; TR-FRET signal (CDK12–cyclin K and DDB1; [7]): 0.9753 and 0.9579; TR-FRET signal (CDK12–cyclin K and DDB1; [8]): 1.242 and 1.248; TR-FRET signal (CDK12–cyclin K and DDB1; [9]): 1.483 and 1.517; TR-FRET signal (CDK12–cyclin K and DDB1; [10]): 1.637 and 1.718; TR-FRET signal (CDK12–cyclin K and DDB1; compound concentration 2448 nM): 1.781 and 1.804; TR-FRET signal (CDK12–cyclin K and DDB1; [11]): 1.87 and 1.831; TR-FRET signal (CDK12–cyclin K and DDB1; [12]): 1.812 and 1.801
